Results reported in paper PMC11597386, “Pharmacokinetics and Quantitative Structure–Pharmacokinetics Relationship Study of Xanthine Derivatives with Antidepressant, Anti-Inflammatory, and Analgesic Activity in Rats” (Pharmaceutics, 2024).
Where two headings read alike, the source gives them in different places.

Columns and labels:
[1] = Pharmacokinetics after single intravenous administration to cannulated rats, noncompartmental analysis; type: in vivo, rat; conditions: for clearance / Vd / half-life: male, Wistar, rat, plasma, iv; for clearance: read-out: CL, total body clearance; for Vd: read-out: Vz, volume of distribution based on the terminal phase; for half-life: read-out: t0.5λz, terminal half-life
Experimental: Male Wistar rats, 15–17 weeks of age and weighing between 250 and 350 g, purchased from the Animal Facility of the Jagiellonian University Medical College, Krakow, Poland, were used in all experiments. They were kept under conditions of constant temperature (21–25 °C) and relative humidity of approximately 40–65% with a standard light/dark cycle. Animals were housed in stainless steel cages with suspended wire mesh floors (maximum of 5 rats per cage) with free access to distilled water and the commercial rodent chaw. All study protocols were approved by the First Local Ethical Committee on Animal Testing of the Jagiellonian University (licenses no. Zi/604/2011 and 13/2014).
Three days prior to the experiment, the rat’s jugular vein was cannulated (SAI Infusion Technologies, Lake Villa, IL, USA), allowing for multiple blood samples from a single animal. […] The doses were selected based on the results of our previous studies on rats and mice. Four rats per compound were used. Multiple blood samples were taken over a period of at least 120 min into heparinized tubes; plasma was separated by centrifugation (Universal 32, Hettich, Germany) at 1400× g for 20 min and stored at −80 °C until analysis.
(§1) For the purpose of the quantitative analysis of free and total plasma concentrations of studied compounds, different analytical methods were developed. Theo was extracted from the biological samples by liquid–liquid extraction using dichloromethane. The mixture consisting of 100 μL of rat plasma or ultrafiltrate, 10 μL of theobromine (25 μg/mL in methanol) used as IS, 20 μL of 0.1 M HCl, and 5 mL of dichloromethane was agitated on a shaker (VXR Vibrax, IKA, Staufen, Germany) and subsequently centrifuged for 20 min at 3000 rpm (Universal 32, Hettich, Germany). A clear supernatant (4 mL) was transferred into a glass conical tube and evaporated to dryness under a stream of nitrogen in a water bath at 37 °C. The residue was then reconstituted in 100 μL of methanol, vortexed for 30 s, and the solution was transferred into the automatic sampler vials. Finally, 10–50 μL aliquot was injected into the HPLC/DAD system (LaChrome Elite, Merck-Hitachi, Germany). Chromatographic separation was performed on the LiChrospher 100 RP-18 (250 × 4 mm i.d., 5 µm particle size) analytical column coupled with a LiChroCART® guard column (4.0 × 4.0 mm, 5 μm) from Merck (Darmstadt, Germany). The mobile phase consisted of a mixture of methanol and deionized water (20:80, v/v) and was pumped through the system at a flow rate of 1.0 mL/min. The peaks were detected by a DAD detector at the wavelength of 271 nm. […] The analytical run lasted 20 min.
Plasma or ultrafiltrate samples containing PTX or (R)-LSF were placed in a glass tube and spiked with 10 µL of the IS solution (100 µg/mL temazepam in methanol). Samples were then acidified with 20 µL of 0.1 M hydrochloric acid, and 3 mL of dichloromethane was added to each sample. Tubes were shaken for 20 min and subsequently centrifuged (2000× g, 20 min). Then, 2.5 mL of dichloromethane was transferred to a clean glass conical tube and evaporated under a gentle stream of nitrogen in a water bath at 37 °C. The dried residue was dissolved in 100 µL of the mobile phase, and 50 µL of this solution was injected into the HPLC column. Analysis was performed on a 250 × 4.6 mm Chiralpak AD column (Daicel Corp., Tokyo, Japan) with 10 μm particle size, protected with a 20 × 4.6 mm LC-Si guard-column (Supelco Inc., Bellefonte, PA, USA). Mobile phase consisted of hexane: 2-propanol, 84:16 (v/v), and 0.01% diethylamine and was pumped at a flow rate of 1.4 mL/min. Calibration curves were linear in a range of 0.1–50 mg/L. The retention times of IS, PTX, and (R)-LSF were 7, 16, and 20 min, respectively. […]

[2] = Plasma protein binding / unbound fraction by ultrafiltration of plasma collected 15 min after i.v. administration; type: in vitro ADME; conditions: male, Wistar, rat, intravenous
Experimental: The free concentrations of studied compounds in plasma were determined and unbound fraction (fu) was calculated in all available plasma samples obtained 15 min after the intravenous administration. At this time point, 500–600 µL of blood was collected and plasma samples obtained were divided into two portions: 150–200 µL for measurement of free compound concentrations and 100 µL for measurement of the total drug concentrations. Plasma proteins were separated by an ultrafiltration method using Centrifree® devices with Ultracel PL regenerated cellulose membrane, 30,000 NMWL (Merck, Germany). For direct measurement of the free concentrations of compounds, each plasma sample was transferred to a sample reservoir of the disposable filter unit and centrifuged (1000× g) for 20 min at 25 °C. An aliquot of the ultrafiltrate was directly subjected to analysis. Free and total compound concentrations were measured by a high-performance liquid chromatography method with diode-array detection (HPLC-DAD) or liquid chromatography with tandem mass spectrometry (LC-MS/MS).
as §1, with “Theo was extracted from the biological samples by liquid–liquid extraction using dichloromethane.” left out
Plasma or ultrafiltrate samples containing PTX or (R)-LSF were placed in a glass tube and spiked with 10 µL of the IS solution (100 µg/mL temazepam in methanol). Samples were then acidified with 20 µL of 0.1 M hydrochloric acid, and 3 mL of dichloromethane was added to each sample. Tubes were shaken for 20 min and subsequently centrifuged (2000× g, 20 min). Then, 2.5 mL of dichloromethane was transferred to a clean glass conical tube and evaporated under a gentle stream of nitrogen in a water bath at 37 °C. The dried residue was dissolved in 100 µL of the mobile phase, and 50 µL of this solution was injected into the HPLC column. Analysis was performed on a 250 × 4.6 mm Chiralpak AD column (Daicel Corp., Tokyo, Japan) with 10 μm particle size, protected with a 20 × 4.6 mm LC-Si guard-column (Supelco Inc., Bellefonte, PA, USA). Mobile phase consisted of hexane: 2-propanol, 84:16 (v/v), and 0.01% diethylamine and was pumped at a flow rate of 1.4 mL/min. […] HPLC system (Thermo Separation Product, San Jose, CA, USA) consisted of a UV/VIS spectrophotometric detector (Spectra 100) with absorbance set at 275 nm, P100 pump, and Rheodyne 7125 manual injector (Alltech Associates, Deerfield, IL, USA) with a 50 µL sample loop. Chromatograms were recorded and integrated with an SP 4400 ChromJet integrator (San Jose, CA, USA).

plasma proteins = test system: plasma proteins; design: method as in earlier work; conditions: cited from earlier work
[3] = male Wistar rats, single i.v. dose (50 mg/kg Theo; 40 mg/kg PTX, LSF; 5 mg/kg GR-1 to GR-5; 2 mg/kg GR-6 to GR-8), geometric mean, n = 4
[4] = rat plasma 15 min after i.v. administration, ultrafiltration, geometric mean, n = 4, read-out: fb, fraction bound to plasma proteins (converted)
[5] = rat plasma 15 min after i.v. administration, ultrafiltration, geometric mean, n = 4, read-out: fu, fraction unbound in plasma
[6] = rat plasma proteins, read-out: percent of plasma protein binding (converted)

Structure (SMILES)	Vss, volume of distribution at steady-state [1, 3] [L/kg]	clearance [1] [mL/min/kg]	Vd [1] [L/kg]	half-life [1] [min]	fraction unbound at 15 min [2, 4]	fraction unbound at 15 min [2, 5]	fraction unbound at 15 min [2, 6]	Vz, volume of distribution based on the terminal phase [1, 3] [L/kg]	percent of plasma protein binding (plasma proteins)
C[C@@H](O)CCCCn1c(=O)c2c(ncn2C)n(C)c1=O [(R)-LSF, R-lisofylline, reference compound]	0.78	22.1	0.82	25.7	0.79	0.79	0.79	–	–
Cn1c(=O)c2c(ncn2CCCCN2CCN(c3cccc(Cl)c3)CC2)n(C)c1=O [GR-1]	–	33.1	2.17	45.4	0.08	0.08	–	–	–
Cn1c(=O)c2c(ncn2CCCCCN2CCN(c3ccccc3)CC2)n(C)c1=O [GR-2]	–	29.6	1.52	35.6	0.29	0.29	0.28 to 0.29	–	–
COc1ccccc1N1CCN(CCCCCn2cnc3c2c(=O)n(C)c(=O)n3C)CC1 [GR-3]	–	23.6	1.7	49.8	0.28	0.28	0.28 to 0.29	–	–
Cn1c(=O)c2c(ncn2CCCCCN2CCN(c3cccc(Cl)c3)CC2)n(C)c1=O [GR-4]	–	26.4	1.9	50	0.06	0.06	–	–	–
CCOc1nc2c(c(=O)n(C)c(=O)n2C)n1CCCC(=O)NN [GR-5]	0.78	25.3	1.43	39	0.89	0.89	0.89	–	–
COc1nc2c(c(=O)n(C)c(=O)n2C)n1CCCC(=O)O [GR-6]	0.49	43.1	–	17.1	0.31	0.31	–	1.06	–
COc1nc2c(c(=O)n(C)c(=O)n2C)n1CCCC(=O)NCc1ccccc1 [GR-7]	0.78	43.2	0.95	15.2	0.13	0.13	–	–	–
COC(=O)Cn1c(=O)[nH]c2c1c(=O)n(C)c(=O)n2C [GR-8]	0.33	68.1	0.66	6.75	0.14	0.14	–	–	–
CC(=O)CCCCn1c(=O)c2c(ncn2C)n(C)c1=O [PTX, pentoxifylline, reference compound]	0.92	55.5	1.18	14.7	0.19	0.19	–	–	–
Cn1c(=O)c2[nH]cnc2n(C)c1=O [Theo, theophylline, reference compound]	0.72	2.14	0.73	236	–	–	–	–	–
Cn1c(=O)c2c(ncn2CC(O)CO)n(C)c1=O (centres unmarked) [diprophyllinum]	–	–	–	–	–	–	–	–	84–90%
